Assay type in all cases: biochemical
For experiment [1], the target named is T1, UvrABC (UvrA, UvrB and UvrC) (Escherichia coli, UniProt P0A698+P0A8F8+P0A8G0).
T1 construct: purified proteins; UvrB and UvrC with C-terminal linker, AviTag, TEV site and 6xHis
Description: fluorescence-based DNA incision assay (Cy5 / black hole quencher). The note with it: 37 °C, 200 nM UvrA, 400 nM UvrB, 200 nM UvrC, 1 mM ATP, 100 nM fluorescein-adducted DNA, pH 7.5, compound concentration not given for this assay.

Experiment [2] deals with T2, UvrA (Escherichia coli, UniProt P0A698).
T2 sequence (P0A698 1-940): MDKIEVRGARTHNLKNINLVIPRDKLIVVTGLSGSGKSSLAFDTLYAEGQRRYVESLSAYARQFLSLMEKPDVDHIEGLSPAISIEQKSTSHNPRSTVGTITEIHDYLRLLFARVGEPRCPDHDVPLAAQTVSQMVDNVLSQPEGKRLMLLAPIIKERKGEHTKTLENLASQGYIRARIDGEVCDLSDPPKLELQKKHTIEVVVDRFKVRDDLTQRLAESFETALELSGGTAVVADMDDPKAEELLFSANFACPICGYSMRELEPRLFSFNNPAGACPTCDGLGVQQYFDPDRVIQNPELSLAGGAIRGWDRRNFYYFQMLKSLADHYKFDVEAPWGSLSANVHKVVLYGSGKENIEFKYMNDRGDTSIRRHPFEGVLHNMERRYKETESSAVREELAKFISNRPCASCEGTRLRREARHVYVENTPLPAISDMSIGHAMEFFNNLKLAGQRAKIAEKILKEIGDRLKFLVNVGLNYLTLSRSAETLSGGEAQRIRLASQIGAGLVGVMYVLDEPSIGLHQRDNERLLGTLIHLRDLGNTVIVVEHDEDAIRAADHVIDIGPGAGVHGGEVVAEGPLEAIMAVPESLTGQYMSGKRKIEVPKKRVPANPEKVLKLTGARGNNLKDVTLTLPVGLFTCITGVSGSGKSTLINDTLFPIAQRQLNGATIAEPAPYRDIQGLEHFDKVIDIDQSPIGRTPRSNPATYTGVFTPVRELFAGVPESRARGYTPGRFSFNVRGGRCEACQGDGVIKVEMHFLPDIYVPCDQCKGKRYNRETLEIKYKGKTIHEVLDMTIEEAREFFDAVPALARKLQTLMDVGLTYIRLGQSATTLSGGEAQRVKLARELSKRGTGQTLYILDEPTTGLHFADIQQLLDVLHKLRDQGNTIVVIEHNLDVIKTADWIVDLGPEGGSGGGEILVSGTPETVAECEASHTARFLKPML
The experiment in a line: NADH-coupled ATPase assay (pyruvate kinase / lactate dehydrogenase). The note with it: 1 mM ATP, 50 nM UvrA, 10 mM MgCl2, pH 7.5, room temperature.

Experiment [3] concerns the target T2, UvrA. Described as above. The note with it: without DNA; 50 nM UvrA, 20 μM compound, 1 mM ATP, 10 mM MgCl2, pH 7.5, room temperature; allosteric site only from docking.
The target of experiment [4] is T2, UvrA. The description is as above. The note with it: with and without DNA; 50 nM UvrA, 20 μM compound, 1 mM ATP, 10 mM MgCl2, pH 7.5, room temperature; DNA intercalator.

T1 sequence (P0A8G0 whole entry, one chain of several): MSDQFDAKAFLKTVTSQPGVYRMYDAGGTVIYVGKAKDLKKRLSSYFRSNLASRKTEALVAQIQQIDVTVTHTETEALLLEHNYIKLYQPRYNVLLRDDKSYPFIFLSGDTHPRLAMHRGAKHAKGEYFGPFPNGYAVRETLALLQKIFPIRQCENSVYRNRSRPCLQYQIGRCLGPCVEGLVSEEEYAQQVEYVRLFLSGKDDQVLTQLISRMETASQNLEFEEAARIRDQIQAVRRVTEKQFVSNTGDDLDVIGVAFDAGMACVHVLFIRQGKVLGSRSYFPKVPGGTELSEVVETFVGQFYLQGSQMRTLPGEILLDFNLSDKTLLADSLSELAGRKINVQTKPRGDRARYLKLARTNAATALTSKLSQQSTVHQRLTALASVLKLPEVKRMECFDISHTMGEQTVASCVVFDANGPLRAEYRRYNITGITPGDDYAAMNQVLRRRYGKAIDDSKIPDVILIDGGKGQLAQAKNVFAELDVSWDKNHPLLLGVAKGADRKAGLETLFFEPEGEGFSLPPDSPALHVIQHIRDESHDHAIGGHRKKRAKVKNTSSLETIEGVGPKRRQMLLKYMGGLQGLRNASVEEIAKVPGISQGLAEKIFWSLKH
T1 sequence (P0A8F8 2-673, one chain of several): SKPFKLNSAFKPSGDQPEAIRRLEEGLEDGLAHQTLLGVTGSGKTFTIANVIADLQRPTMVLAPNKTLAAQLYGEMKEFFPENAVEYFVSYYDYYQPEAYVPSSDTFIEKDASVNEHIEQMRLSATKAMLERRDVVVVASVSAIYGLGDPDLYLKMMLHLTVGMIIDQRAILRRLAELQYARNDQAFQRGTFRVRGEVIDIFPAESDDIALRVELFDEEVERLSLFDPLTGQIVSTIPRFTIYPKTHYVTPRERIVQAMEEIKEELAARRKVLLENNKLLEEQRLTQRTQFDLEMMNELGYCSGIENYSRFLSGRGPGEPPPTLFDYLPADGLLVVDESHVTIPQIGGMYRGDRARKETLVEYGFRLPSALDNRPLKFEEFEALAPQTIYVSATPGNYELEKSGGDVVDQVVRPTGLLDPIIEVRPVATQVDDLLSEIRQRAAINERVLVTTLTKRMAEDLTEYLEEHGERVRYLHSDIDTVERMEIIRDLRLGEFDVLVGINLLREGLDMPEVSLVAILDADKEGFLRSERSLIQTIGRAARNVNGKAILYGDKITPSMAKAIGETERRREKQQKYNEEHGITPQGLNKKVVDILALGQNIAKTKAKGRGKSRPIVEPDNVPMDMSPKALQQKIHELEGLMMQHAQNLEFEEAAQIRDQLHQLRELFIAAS

With `Nc1c2ccccc2nc2ccccc12` [9-aminoacridine], the max inhibition in experiment [1] (2.5 h, possibly acts through DNA, target subunit unk) was ~ 49%.
As to `Nc1ncnc2c1ncn2[C@@H]1O[C@H](COP(=O)(O)OP(=O)(O)OP(=O)(O)O)[C@@H](O)[C@H]1O` [ATP], the “NADH-coupled ATPase assay (pyruvate kinase / lactate dehydrogenase)” value in experiment [2] is “We directly measured the rate of ATP turnover for purified UvrA”.
Consider `C/C=C(/C(=C/C)c1ccc(O)cc1)c1ccc(O)cc1` [Dienestrol], for which, in experiment [3], the “% reduction of ATPase at 20 μM” value is on record as > 70%. For the same compound, the max inhibition in experiment [1] (16 h) was ~ 25%.
For the compound `N[C@@H](Cc1cc(I)c(Oc2cc(I)c(O)c(I)c2)c(I)c1)C(=O)O` [L-thyroxine], the “% reduction of ATPase at 20 μM” value in experiment [3] is > 70%.
As for `O=C1c2c(O)ccc(O)c2C(=O)c2c(NCCNCCO)ccc(NCCNCCO)c21` [Mitoxantrone], the max inhibition in experiment [1] (16 h, DNA intercalator) is ~ 82%. For the same compound, the “% ATPase activity at 20 μM” value in experiment [4] is “both Mitoxantrone and Pirarubicin directly inhibit UvrA’s ATPase activity”.
Consider `COc1cccc2c1C(=O)c1c(O)c3c(c(O)c1C2=O)C[C@@](O)(C(=O)CO)C[C@@H]3O[C@H]1C[C@H](N)[C@H](O[C@@H]2CCCCO2)[C@H](C)O1` [Pirarubicin], for which the “% ATPase activity at 20 μM” value in experiment [4] is “Pirarubicin, Mitoxantrone, Dienestrol and L-thyroxine all inhibited the ATPase”.

The record behind these values is publication PMC10729960, “Developing novel antimicrobials by combining cancer chemotherapeutics with bacterial DNA repair inhibitors” (PLOS Pathogens, 2023).
